The values that follow come from publication PMC11820866, “Angiotensin-Converting Enzyme (ACE)-Inhibitor Activity of Novel Peptides Derived from Porcine Liver and Placenta” (Molecules, 2025).

Like-named read-outs stand apart in the source and are kept apart here. Residues, ends and D or L forms follow the SMILES beside them. No end group written: not given here.

In one series the target is T1, ACE from rabbit lung (Oryctolagus cuniculus, UniProt P12822).
T1 construct: ACE from rabbit lung (purchased from Sigma Aldrich 2U equal to 1 mg of protein); purchased Sigma Aldrich; host or cells: rabbit lung
T1 sequence (P12822 34-1310): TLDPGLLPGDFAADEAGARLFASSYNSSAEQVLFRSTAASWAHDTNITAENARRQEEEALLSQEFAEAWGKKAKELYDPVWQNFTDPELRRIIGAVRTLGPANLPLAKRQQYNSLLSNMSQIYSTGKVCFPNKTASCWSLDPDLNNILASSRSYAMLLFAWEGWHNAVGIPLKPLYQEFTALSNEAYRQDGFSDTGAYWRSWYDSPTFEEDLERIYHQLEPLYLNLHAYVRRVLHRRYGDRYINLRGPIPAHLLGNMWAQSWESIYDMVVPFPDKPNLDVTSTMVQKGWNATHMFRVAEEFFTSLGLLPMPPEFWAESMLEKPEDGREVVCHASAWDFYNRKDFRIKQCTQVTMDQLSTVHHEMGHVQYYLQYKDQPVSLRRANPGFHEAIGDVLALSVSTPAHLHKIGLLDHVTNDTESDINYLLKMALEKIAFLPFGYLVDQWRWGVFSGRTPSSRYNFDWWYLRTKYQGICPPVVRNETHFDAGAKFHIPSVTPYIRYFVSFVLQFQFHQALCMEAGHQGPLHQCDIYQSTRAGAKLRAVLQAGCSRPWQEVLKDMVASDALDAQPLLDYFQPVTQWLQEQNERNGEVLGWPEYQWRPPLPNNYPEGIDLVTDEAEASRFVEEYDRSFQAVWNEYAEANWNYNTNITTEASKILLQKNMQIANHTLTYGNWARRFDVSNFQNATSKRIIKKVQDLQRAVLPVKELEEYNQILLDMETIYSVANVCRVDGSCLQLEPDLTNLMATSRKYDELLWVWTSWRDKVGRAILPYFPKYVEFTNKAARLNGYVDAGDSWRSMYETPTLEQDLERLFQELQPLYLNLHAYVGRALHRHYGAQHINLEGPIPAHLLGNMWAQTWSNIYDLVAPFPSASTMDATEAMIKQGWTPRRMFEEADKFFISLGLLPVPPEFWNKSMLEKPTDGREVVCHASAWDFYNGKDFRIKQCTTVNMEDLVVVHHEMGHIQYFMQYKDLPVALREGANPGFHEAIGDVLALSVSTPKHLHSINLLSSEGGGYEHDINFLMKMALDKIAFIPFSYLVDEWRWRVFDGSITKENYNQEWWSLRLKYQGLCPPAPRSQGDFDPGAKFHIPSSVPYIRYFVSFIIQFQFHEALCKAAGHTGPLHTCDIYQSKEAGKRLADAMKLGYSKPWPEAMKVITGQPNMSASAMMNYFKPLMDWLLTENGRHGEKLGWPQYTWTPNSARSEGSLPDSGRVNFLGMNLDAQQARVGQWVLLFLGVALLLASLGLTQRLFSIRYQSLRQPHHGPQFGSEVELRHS
As to the kind of experiment: ACE-inhibition assay (modified Cushman and Cheung, HHL substrate, HPLC). The settings on record: 0.5 mM HHL, TRIS pH 8.3, 37 °C 30 min, HPLC-UV 228 nm, calculated from % inhibition at 0.1, 1 (2) mM, this study. The format is biochemical.

Series [1] in a line: Solubility of synthetic peptides in aqueous solution. The format is physicochemical. The following applies: in words; stocks 10 mM in deionised water. Here is the method:
Based on the in silico activity prediction, four synthetic peptides were ordered from Peptide Synthetics (Protein Peptide Research Ltd., Fareham, UK). They were supplied as 10 mg aliquots of lyophilised powders. The synthetic peptides were dissolved in deionised water to produce 10 mM stock solutions: • FWG: 10 mg/mL = 24.48 mM therefore 10 mM = 4.085 mg/mL • MFLG: 10 mg/mL = 21.43 mM therefore10 mM = 4.666 mg/mL • […]: 10 mg/mL = 10.75 mM therefore 10 mM = 9.302 mg/mL • FFNDA: 10 mg/mL = 16.32 mM or10 mM = 6.127 mg/mL

The next series has as its system ACE. Details: method as in 14 sources, ref [13, 14] = [13]; PMID 16218651; doi:10.1021/jf0508908; 13. Vercruysse L. Van Camp J. Smagghe G. ACE inhibitory peptides derived from enzymatic hydrolysates of animal muscle protein: A review J. Agric. Food Chem. 2005 53 8106 8115 10.1021/jf0508908 1621865 || [14]; PMID 22061507; doi:10.1016/S0309-1740(00)00108-X; 14. Arihara K. Nakashima Y. Mukai T. Ishikawa S. Itoh M. Peptide inhibitors for angiotensin I-converting enzyme from enzymatic hydrolysates of porcine skeletal muscle proteins Meat Sci. 2001 57 319 32 ||| ref [13, 15] = [13]; PMID 16218651; doi:10.1021/jf0508908; 13. Vercruysse L. Van Camp J. Smagghe G. ACE inhibitory peptides derived from enzymatic hydrolysates of animal muscle protein: A review J. Agric. Food Chem. 2005 53 8106 8115 10.1021/jf0508908 1621865 || [15]; doi:10.1046/j.1344-3941.2003.00086.x; 15. Katayama K. Tomatsu M. Fuchu H. Sugiyama M. Kawahara S. Yamauchi K. Kawamura Y. Muguruma M. Purification and characterization of an angiotensin I-converting enzyme inhibitory peptide derived from ||| ref [16] = [16]; doi:10.1016/j.foodchem.2008.09.081; 16. Muguruma M. Ahhmed A.M. Katayama K. Kawahara S. Maruyama M. Nakamura T. Identification of pro-drug type ACE inhibitory peptide sourced from porcine myosin B: Evaluation of its antihypertensive eff ||| ref [17] = [17]; PMID 1368684; 17. Miyoshi S. Ishikawa H. Kaneko T. Fukui F. Tanaka H. Maruyama S. Structures and activity of angiotensin-converting enzyme inhibitors in an α-zein hydrolysate Agric. Biol. Chem. 1991 55 1313 1318 13 ||| ref [17, 18] = [17]; PMID 1368684; 17. Miyoshi S. Ishikawa H. Kaneko T. Fukui F. Tanaka H. Maruyama S. Structures and activity of angiotensin-converting enzyme inhibitors in an α-zein hydrolysate Agric. Biol. Chem. 1991 55 1313 1318 13 || [18]; PMID 16448176; doi:10.1021/jf051263l; 18. Wu J. Aluko R.E. Nakai S. Structural requirements of angiotensin i-converting enzyme inhibitory peptides: Quantitative structure−activity relationship study of di- and tripeptides J. Agric. Food C ||| ... The following applies: cited from earlier work; for ACE inhibition (in words): fish skin gelatine hydrolysate peptides, ref [26]; for IC50: porcine-derived peptides, literature, read-out: ACE Inhibition IC50.

Experimental for ACE from rabbit lung: ACE from rabbit lung (purchased from Sigma Aldrich 2U equal to 1 mg of protein) was reconstituted in milli-q water (1 mL) to produce the ACE stock solution (1 U/mL, 500 μg/mL of protein). ACE working solution (200 mU/mL, 100 μg/mL of protein) was prepared by diluting the stock solution 1:5. ACE stock solution was stored at −20 °C, and the ACE working solution was prepared when required. […] Milli-q water or experimental sample (40 μL) and 0.5 mM HHL (145 μL) were added to 1.5 mL micro-centrifuge tubes and incubated in a water bath at 37 °C for 3 min; then, 200 mU/mL ACE (15 μL) was added to each tube and the tubes were then incubated in a water bath at 37 °C for 30 min. After 30 min, 1 M HCl (200 μL) was added to the tubes to stop the reaction.
To determine the anti-ACE activity of the analytes, the samples were analysed using HPLC (Beckman Coulter) fitted with an Ascentis® Express Peptide ES-C18, 2.7 μm column. The samples were eluted with an isocratic mobile phase consisting of 50% methanol and 50% water containing trifluoroacetic acid (TFA) (0.2%) at a flow rate of 0.4 mL/min. The substrate and the product were detected using UV at 228 nm. The ability of each peptide to inhibit ACE was measured by comparing the reduction of HA (the product of ACE digested HHL) in relation to the positive control (no inhibitor or peptide present). Inhibition was calculated using Equation (1), as follows:ACE inhibition (%) = (1 − (B ÷ A)) × 100(1) where A is the area of the HA peak in control 1 and B is the area of the HA peak in experimental sample. To assess the anti-ACE activity of the synthetic peptides, samples were prepared by diluting the 10 mM stock synthetic peptide solutions using milli-q water to produce samples at 2 mM, 1 mM, and 0.1 mM.

By IC50 is commonly meant the concentration that inhibits the measured activity by half. With `CSCC[C@H](N)C(=O)N[C@@H](Cc1ccccc1)C(=O)N[C@@H](CC(C)C)C(=O)NCC(=O)O` [MFLG] (H-MFLG-OH), on ACE from rabbit lung, the IC50 was 0.07 mM. Besides, the “Solubility in aqueous solution” value in series [1] was “readily soluble in aqueous solution”.

As for FFNDA [FFNDA], the IC50 on ACE from rabbit lung was 0.83 mM. Moreover, in series [1], the “Solubility in aqueous solution” value is recorded as “perhaps less soluble”.

On to “GIPGAP [peptide from hydrolysates of thornback ray skin]”, for which the “ACE inhibition (in words)” value in the series on ACE is listed as “most active ACE inhibitor”.

On to “ITTNP [literature porcine peptide, myosin]”, for which the IC50 with ACE (ref [13],[14]) was 549 µM.

As to “KAPVA [literature porcine peptide, titin]”, the IC50 in the series with ACE (ref [20],[24]) is 47 µM.

Turning to “KRQKYDI [literature porcine peptide, troponin]”, the IC50 in the series with ACE (ref [17],[20]) was 27 µM.

With “KRVITY [literature porcine peptide, myosin]”, the half-maximal inhibitory concentration (IC50) with ACE (ref [16]) is 6 µM.

Regarding LLMLDNDLPP, the “ACE inhibition (in words)” value in the series with ACE is reported as “potent non-competitive ACE inhibition”.

In the case of “MNPPK [literature porcine peptide, myosin]”, the half-inhibitory concentration (IC50) with ACE (ref [13],[14]) was 946 µM.

For “PTPVP [literature porcine peptide, titin]”, the IC50 in the series with ACE (ref [20],[24]) is 256 µM.

As for “RMLGQTP [literature porcine peptide, troponin C]”, the IC50 in the series with ACE (ref [13],[15]) was 503 µM.

Turning to “RMLGQTPTK [literature porcine peptide, troponin C]”, in the series with ACE (ref [13],[15]), the concentration for half-maximal inhibition (IC50) is 34 µM.

As for SDPPLVFVG, the half-inhibitory concentration (IC50) at ACE from rabbit lung is 1.16 mM. Besides, the “Solubility in aqueous solution” value in series [1] is “perhaps less soluble”.

Consider “VKAGF [literature porcine peptide, actin]”, for which the IC50 in the series on ACE (ref [16]) is 20 µM.

“VKKVLGNP [literature porcine peptide, myosin (light chain)]”: the IC50 in the series on ACE (ref [20],[21]) was 29 µM.

As to “VLAQYK [peptide derived from meat waste]”, the “ACE-inhibitory activity (in words)” value in the series on ACE (peptide derived from meat waste, ref [7]) is “greatest ACE-inhibitory activity”.
